This is an account of results in US20240368150A1 (Hoffmann-La Roche Inc., priority 2021, published 2024).

In experiment [1] the test system is primary human T-cells. Description: Proliferation assay after 5 days (CellTiter-Glo, CD3 stimulation; PBS counter screen). It counts as cell-based. The settings on record: T-cell, 120 h, CD3 stimulation; for Emax: 5 days, normalized to reference compound A1 as stimulator control = 100%, DMSO neutral control, read-out: Emax proliferation (% activation); for EC50: primary human T-cells, CellTiter-Glo after 5 days, EC50 of fitted sigmoidal curve, read-out: Tcell Proliferation CD3 EC50. In short, it runs like this: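 Primary human T-cells, with or without CD3 stimulation, exposed to compounds for 5 days; cell number read as ATP by CellTiter-Glo 2.0 luminescence after 45 min equilibration and 15 min reagent incubation at room temperature. Compounds activating unstimulated cells or reducing viability were flagged.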
Background: In ATP-based viability assays light output follows the ATP content of the culture.

Experiment [2] deals with primary human T-cells.

The structures appear in SMILES notation. Read-outs that look alike come from different tables or passages of the source.

Consider `N[C@H]1CS(=O)(=O)c2cc(F)c(-c3nnc(C4(CO)CC4)o3)cc2N(Cc2ccc(Cl)cc2)C1=O` [Example 65, (3R)-3-amino-5-[(4-chlorophenyl)methyl]-8-fluoro-7-[5-[1-(hydroxymethyl)cyclopropyl]-1,3,4-oxadiazol-2-yl]-1,1-dioxo-2,3-dihydro-1λ^6,5-benzothiazepin-4-one], for which, in experiment [1] (Homo sapiens), the Emax was determined as 77% and the EC50 amounted to 1060 nM. This compound returned an EC50 in experiment [2] of 3850 nM.
The matching figures for `N[C@H]1CS(=O)(=O)c2ccc(-c3nnc(CC(F)(F)F)o3)c(F)c2N(Cc2ccc(Cl)cc2)C1=O` [Example 217, (3R)-3-amino-5-[(4-chlorophenyl)methyl]-6-fluoro-1,1-dioxo-7-[5-(2,2,2-trifluoroethyl)-1,3,4-oxadiazol-2-yl]-2,3-dihydro-1λ^6,5-benzothiazepin-4-one]: 221%, 2110 nM and 780 nM.
The matching figures for `N[C@H]1CS(=O)(=O)c2cc(F)c(-c3nnc(N4CC5COCC(C4)C5(F)F)o3)cc2N(Cc2ccc(Cl)cc2)C1=O` [Example 476, (3R)-3-amino-5-[(4-chlorophenyl)methyl]-7-[5-(9,9-difluoro-3-oxa-7-azabicyclo[3.3.1]nonan-7-yl)-1,3,4-oxadiazol-2-yl]-8-fluoro-1,1-dioxo-2,3-dihydro-1λ^6,5-benzothiazepin-4-one]: 95%, 455 nM and 8680 nM.
The matching figures for `N[C@H]1CS(=O)(=O)c2cc(F)c(-c3nnc(NC4CCCN(CC(F)(F)F)C4)o3)cc2N(Cc2ccc(Cl)cc2)C1=O` (stereo partly drawn) [Example 492, (3R)-3-amino-5-[(4-chlorophenyl)methyl]-8-fluoro-1,1-dioxo-7-[5-[[1-(2,2,2-trifluoroethyl)-3-piperidyl]amino]-1,3,4-oxadiazol-2-yl]-2,3-dihydro-1λ^6,5-benzothiazepin-4-one]: 88%, 671 nM and 638 nM.
`CC(O)(CNc1nnc(-c2cc3c(cc2F)S(=O)(=O)C[C@H](N)C(=O)N3Cc2ccc(Cl)cc2)o1)C(F)(F)F` (stereo partly drawn) [Example 484]: in experiment [1] (Homo sapiens), the Emax was determined as 51% and the EC50 is 1060 nM. The compound also registered an EC50 in experiment [2] of 1890 nM.
On to `N[C@H]1CS(=O)(=O)c2ccc(-c3nnc(C(F)C(F)(F)F)o3)cc2N(Cc2ccc(Cl)cc2)C1=O` (stereo partly drawn) [Example 369, (3R)-3-amino-5-[(4-chlorophenyl)methyl]-1,1-dioxo-7-[5-(1,2,2,2-tetrafluoroethyl)-1,3,4-oxadiazol-2-yl]-2,3-dihydro-1λ^6,5-benzothiazepin-4-one], for which the Emax in experiment [1] (Homo sapiens) is 114%. For the same compound, the EC50 in experiment [1] worked out at 466 nM; in experiment [2], 1700 nM.
Take `CC(=O)N1CCC(c2nnc(-c3cc4c(cc3F)S(=O)(=O)C[C@H](N)C(=O)N4Cc3ccc(Cl)cc3)o2)CC1` [Example 168, (3R)-7-[5-(1-acetyl-4-piperidyl)-1,3,4-oxadiazol-2-yl]-3-amino-5-[(4-chlorophenyl)methyl]-8-fluoro-1,1-dioxo-2,3-dihydro-1λ^6,5-benzothiazepin-4-one]: in experiment [1] (Homo sapiens), the Emax came to 63% and the EC50 stood at 4950 nM. The EC50 in experiment [2] was found to be 1590 nM.
The matching figures for `COC(=O)N1CC2CC2(c2nnc(-c3cc4c(cc3F)S(=O)(=O)C[C@H](N)C(=O)N4Cc3ccc(Cl)cc3)o2)C1` (stereo partly drawn) [Example 183, methyl 1-[5-[(3R)-3-amino-5-[(4-chlorophenyl)methyl]-8-fluoro-1,1,4-trioxo-2,3-dihydro-1λ^6,5-benzothiazepin-7-yl]-1,3,4-oxadiazol-2-yl]-3-azabicyclo[3.1.0]hexane-3-carboxylate]: 131%, 336 nM and 43 nM.
The matching figures for `CC(C)(C)c1nnc(-c2cc3c(cc2F)S(=O)(=O)C[C@H](N)C(=O)N3Cc2cnc(C3CC3)nc2)o1` [Example 238, (3R)-3-amino-7-(5-tert-butyl-1,3,4-oxadiazol-2-yl)-5-[(2-cyclopropylpyrimidin-5-yl)methyl]-8-fluoro-1,1-dioxo-2,3-dihydro-1λ^6,5-benzothiazepin-4-one]: 102%, 3070 nM and 769 nM.
The matching figures for `CCc1nc(-c2cc3c(cc2F)S(=O)(=O)C[C@H](N)C(=O)N3Cc2ccc(Cl)cc2)n[nH]1` [Example 38, (3R)-3-amino-5-[(4-chlorophenyl)methyl]-7-(5-ethyl-1H-1,2,4-triazol-3-yl)-8-fluoro-1,1-dioxo-2,3-dihydro-1λ^6,5-benzothiazepin-4-one]: 50%, over 20000 nM and over 20000 nM.
Turning to `COC(=O)N1CCC(n2nnc(-c3cc4c(cc3F)S(=O)(=O)C[C@H](N)C(=O)N4Cc3ccc(Cl)cc3)n2)C1` (stereo partly drawn) [Example 15, methyl 3-[5-[(3R)-3-amino-5-[(4-chlorophenyl)methyl]-8-fluoro-1,1,4-trioxo-2,3-dihydro-1λ^6,5-benzothiazepin-7-yl]tetrazol-2-yl]pyrrolidine-1-carboxylate], in experiment [1] (Homo sapiens), the Emax was found to be 109% and the EC50 is 2440 nM. Besides, the EC50 in experiment [2] turned out to be 832 nM.
The matching figures for `CC(C)(C)c1nnc(-c2cc3c(cc2F)S(=O)(=O)C[C@H](N)C(=O)N3Cc2ccc(Oc3ccccc3)cc2)o1` [Example 233]: 127%, 86.6 nM and 95 nM.
Regarding `CCc1cnn(-c2cc3c(cc2F)S(=O)(=O)C[C@H](N)C(=O)N3Cc2ccc(Cl)cc2)c1` [Example 284, (3R)-3-amino-5-[(4-chlorophenyl)methyl]-7-(4-ethylpyrazol-1-yl)-8-fluoro-1,1-dioxo-2,3-dihydro-1λ^6,5-benzothiazepin-4-one], in experiment [1] (Homo sapiens), the Emax worked out at 30% and the EC50 was determined as 5490 nM. The compound further registered an EC50 in experiment [2] of over 20000 nM.
Turning to `N[C@H]1CS(=O)(=O)c2ccc(-c3nnc(N4CCOC5CC54)o3)cc2N(Cc2ccc(Cl)cc2)C1=O` (stereo partly drawn) [Example 408, (3R)-3-amino-5-[(4-chlorophenyl)methyl]-7-[5-(2-oxa-5-azabicyclo[4.1.0]heptan-5-yl)-1,3,4-oxadiazol-2-yl]-1,1-dioxo-2,3-dihydro-1λ^6,5-benzothiazepin-4-one], in experiment [1] (Homo sapiens), the Emax came to 88% and the EC50 was 4890 nM. For the same compound, in experiment [2], the EC50 is over 10000 nM.
The matching figures for `N[C@H]1CS(=O)(=O)c2cc(F)c(-c3nnc(-c4ccccc4)o3)cc2N(Cc2ccc(Cl)cc2)C1=O` [Example 97, (3R)-3-amino-5-[(4-chlorophenyl)methyl]-8-fluoro-1,1-dioxo-7-(5-phenyl-1,3,4-oxadiazol-2-yl)-2,3-dihydro-1λ^6,5-benzothiazepin-4-one]: 115%, 520 nM and 1040 nM.
The matching figures for `N[C@H]1CS(=O)(=O)c2ccc(-c3nnc(N4CC(CO)(CCl)C4)o3)cc2N(Cc2ccc(Cl)cc2)C1=O` [Example 400, (3R)-3-amino-7-[5-[3-(chloromethyl)-3-(hydroxymethyl)azetidin-1-yl]-1,3,4-oxadiazol-2-yl]-5-[(4-chlorophenyl)methyl]-1,1-dioxo-2,3-dihydro-1λ^6,5-benzothiazepin-4-one]: 72%, 5220 nM and 4050 nM.
On to `CCn1cc(-c2cc3c(cc2F)S(=O)(=O)C[C@H](N)C(=O)N3Cc2ccc(Cl)cc2)cn1` [Example 279], for which, in experiment [1] (Homo sapiens), the Emax was determined as 90% and the EC50 is 5340 nM. Moreover, the EC50 in experiment [2] worked out at 470 nM.
